pIC50: −log10 of the molar value. Peptide text beside a SMILES is read from it.
Legend:
[1] = test system: Human fibronectin; format: binding; conditions: for pIC50: read-out: concentration eliciting a 50% inhibition of fibronectin binding
[2] = test system: Treponema palladium; conditions: Thomas et al., 1985b; cited from earlier work
[3] = test system: Trypanosoma cruzi; conditions: Ouaissi et al., 1986; cited from earlier work
[4] = test system: spirochetes; conditions: cited from earlier work

## CC[C@H](C)[C@H](NC(=O)[C@H](CCC(=O)O)NC(=O)[C@@H](NC(=O)[C@H](Cc1c[nH]cn1)NC(=O)[C@H](CCCCN)NC(=O)[C@H](CC(N)=O)NC(=O)[C@@H](N)Cc1ccccc1)[C@@H](C)O)C(=O)N[C@H](C(=O)N[C@@H](CCC(=O)O)C(=O)N[C@@H](CCC(=O)O)C(=O)N[C@@H](CC(=O)O)C(=O)N[C@H](C(=O)N[C@@H](CC(N)=O)C(=O)N[C@@H](CCCCN)C(=O)N[C@@H](CC(=O)O)C(=O)N[C@@H](CCCCN)C(=O)N1CCC[C@H]1C(=O)N[C@@H](CO)C(=O)N[C@@H](Cc1ccc(O)cc1)C(=O)N[C@@H](CCC(N)=O)C(=O)N[C@@H](Cc1ccccc1)C(=O)NCC(=O)NCC(=O)N[C@@H](Cc1c[nH]cn1)C(=O)N[C@@H](CC(N)=O)C(=O)N[C@@H](CO)C(=O)N[C@H](C(=O)N[C@@H](CC(=O)O)C(=O)N[C@@H](Cc1ccccc1)C(=O)N[C@@H](CCC(=O)O)C(=O)N[C@@H](CCC(=O)O)C(=O)N[C@@H](CC(=O)O)C(=O)N[C@H](C(=O)N[C@@H](CC(C)C)C(=O)N1CCC[C@H]1C(=O)N[C@@H](CCCCN)C(=O)N[C@H](C(=O)O)C(C)C)[C@@H](C)O)C(C)C)[C@@H](C)O)[C@@H](C)CC [Peptide D3] (H-FNKHTEIIEEDTNKDKPSYQFGGHNSVDFEEDTLPKV-OH)
[1]
  inhibitory activity (inhibition of ^125I-HFN binding to S. aureus 8325-4), in words: effective inhibitors

## CC(C)C[C@H](NC(=O)[C@@H](NC(=O)[C@H](CC(=O)O)NC(=O)[C@H](CCC(=O)O)NC(=O)[C@H](CCC(=O)O)NC(=O)[C@H](Cc1ccccc1)NC(=O)[C@H](CC(=O)O)NC(=O)[C@@H](NC(=O)[C@H](CO)NC(=O)[C@H](CC(N)=O)NC(=O)[C@H](Cc1c[nH]cn1)NC(=O)CNC(=O)CNC(=O)[C@H](Cc1ccccc1)NC(=O)[C@H](CCC(N)=O)NC(=O)[C@H](Cc1ccc(O)cc1)NC(=O)[C@H](CO)NC(=O)[C@@H]1CCCN1C(=O)[C@@H](N)CCCCN)C(C)C)[C@@H](C)O)C(=O)N1CCC[C@H]1C(=O)N[C@@H](CCCCN)C(=O)O [Peptide S16-36] (H-KPSYQFGGHNSVDFEEDTLPK-OH)
[1]
  pIC50: 5.00

## CC(C)[C@H](NC(=O)[C@H](CO)NC(=O)[C@H](CC(N)=O)NC(=O)[C@H](Cc1c[nH]cn1)NC(=O)CNC(=O)CNC(=O)[C@H](Cc1ccccc1)NC(=O)[C@H](CCC(N)=O)NC(=O)[C@H](Cc1ccc(O)cc1)NC(=O)[C@H](CO)NC(=O)[C@@H]1CCCN1)C(=O)N[C@@H](CC(=O)O)C(=O)N[C@@H](Cc1ccccc1)C(=O)N[C@@H](CCC(=O)O)C(=O)N[C@@H](CCC(=O)O)C(=O)N[C@@H](CC(=O)O)C(=O)N[C@H](C(=O)O)[C@@H](C)O [Peptide S17-33] (H-PSYQFGGHNSVDFEEDT-OH)
[1]
  inhibitory activity (inhibition of ^125I-HFN binding to S. aureus 8325-4), in words: dramatic recovery of activity
  pIC50: 4.00

## CC(C)C[C@H](NC(=O)[C@@H](NC(=O)[C@H](CC(=O)O)NC(=O)[C@H](CCC(=O)O)NC(=O)[C@H](CCC(=O)O)NC(=O)[C@H](Cc1ccccc1)NC(=O)[C@H](CC(=O)O)NC(=O)[C@@H](NC(=O)[C@H](CO)NC(=O)[C@H](CC(N)=O)NC(=O)[C@H](Cc1c[nH]cn1)NC(=O)CNC(=O)CNC(=O)[C@H](Cc1ccccc1)NC(=O)[C@@H](N)CCC(N)=O)C(C)C)[C@@H](C)O)C(=O)N1CCC[C@H]1C(=O)N[C@@H](CCCCN)C(=O)O [Peptide S20-36] (H-QFGGHNSVDFEEDTLPK-OH)
[1]
  pIC50: 3.70

## CC(C)C[C@H](NC(=O)[C@@H](NC(=O)[C@H](CC(=O)O)NC(=O)[C@H](CCC(=O)O)NC(=O)[C@H](CCC(=O)O)NC(=O)[C@H](Cc1ccccc1)NC(=O)[C@H](CC(=O)O)NC(=O)[C@@H](NC(=O)[C@H](CO)NC(=O)[C@H](CC(N)=O)NC(=O)[C@H](Cc1c[nH]cn1)NC(=O)CNC(=O)CNC(=O)[C@@H](N)Cc1ccccc1)C(C)C)[C@@H](C)O)C(=O)N1CCC[C@H]1C(=O)N[C@@H](CCCCN)C(=O)O [Peptide S21-36] (H-FGGHNSVDFEEDTLPK-OH)
[1]
  fold less effective than S20-36: about 10 fold

## RGDS
[2]
  binding of fibronectin to Treponema palladium, in words: prevented
[3]
  binding of fibronectin to Trypanosoma cruzi, in words: prevented
[4]
  attachment of spirochetes to cultured human cells, in words: blocked
